How the values were obtained:
Experiment in all cases: 33PanQinase panel
Format in all cases: biochemical
[1] = target: T1, MYLK2 (Homo sapiens, UniProt Q9H1R3); conditions: MYLK2, 1 µM; read-out: Residual Activity (%)
T1 construct: purchased ProQinase
Procedure, shortened: (§1)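 Measured value: residual activity (%) vs DMSO. Conditions: 1 µM compound, 1% DMSO, radiometric 33PanQinase format, 320 wild-type kinase panel.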

[2] = target: T2, ALK (GST-HIS-tag) (Homo sapiens, UniProt Q9UM73); conditions: read-out: Residual Activity (%)
T2 construct: purchased ProQinase
Procedure, shortened: as §1

[3] = target: T3, CHK1 (Homo sapiens, UniProt O14757); conditions: CHK1, 1 µM; read-out: Residual Activity (%)
T3 construct: purchased ProQinase
T3 sequence (O14757 whole entry): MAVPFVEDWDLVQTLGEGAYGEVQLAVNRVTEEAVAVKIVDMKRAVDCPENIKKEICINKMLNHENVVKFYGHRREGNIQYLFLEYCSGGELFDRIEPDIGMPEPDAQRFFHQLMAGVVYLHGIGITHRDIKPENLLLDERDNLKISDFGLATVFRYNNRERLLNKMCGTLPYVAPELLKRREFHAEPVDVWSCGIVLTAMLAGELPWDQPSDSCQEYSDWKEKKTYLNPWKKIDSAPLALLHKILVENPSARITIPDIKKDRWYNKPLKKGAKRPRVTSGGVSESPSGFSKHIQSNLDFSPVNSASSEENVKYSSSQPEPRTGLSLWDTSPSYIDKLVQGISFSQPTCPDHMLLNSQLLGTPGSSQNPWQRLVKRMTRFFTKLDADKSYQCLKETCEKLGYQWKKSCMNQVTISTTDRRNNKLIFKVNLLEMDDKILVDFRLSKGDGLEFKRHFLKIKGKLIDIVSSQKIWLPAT
Procedure, shortened: as §1

[4] = target: T4, DAPK3 (Homo sapiens, UniProt O43293); conditions: DAPK3, 1 µM; read-out: Residual Activity (%)
T4 construct: purchased ProQinase
Procedure, shortened: as §1

[5] = target: T5, CDK6/CycD1 (Homo sapiens, UniProt Q00534); conditions: CDK6/CycD1, 1 µM; read-out: Residual Activity (%)
T5 construct: purchased ProQinase
T5 sequence (Q00534 whole entry): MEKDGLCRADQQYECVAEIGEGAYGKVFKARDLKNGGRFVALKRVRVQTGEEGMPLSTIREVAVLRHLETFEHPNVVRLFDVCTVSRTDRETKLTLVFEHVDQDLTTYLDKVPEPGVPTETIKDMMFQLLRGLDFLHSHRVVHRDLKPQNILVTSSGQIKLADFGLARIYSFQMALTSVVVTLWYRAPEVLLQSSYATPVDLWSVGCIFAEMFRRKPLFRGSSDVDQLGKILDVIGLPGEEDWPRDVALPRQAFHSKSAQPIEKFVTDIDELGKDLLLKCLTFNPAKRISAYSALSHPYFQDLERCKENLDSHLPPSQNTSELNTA
T5 sequence (P24385 whole entry partner): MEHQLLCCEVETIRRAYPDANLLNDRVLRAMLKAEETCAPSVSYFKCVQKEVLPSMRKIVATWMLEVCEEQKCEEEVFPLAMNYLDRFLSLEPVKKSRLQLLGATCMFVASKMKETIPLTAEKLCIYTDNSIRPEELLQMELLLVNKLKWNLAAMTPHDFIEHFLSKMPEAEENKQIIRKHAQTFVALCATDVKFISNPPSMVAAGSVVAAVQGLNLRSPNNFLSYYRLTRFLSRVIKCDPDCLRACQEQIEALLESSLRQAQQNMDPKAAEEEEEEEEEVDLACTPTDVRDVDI
Procedure, shortened: as §1

[6] = target: T6, PIM3 (Homo sapiens, UniProt Q86V86); conditions: PIM3, 1 µM; read-out: Residual Activity (%)
T6 construct: purchased ProQinase
Procedure, shortened: as §1

[7] = target: T7, FYN (Homo sapiens, UniProt P06241); conditions: read-out: Residual Activity (%)
T7 construct: purchased ProQinase
Procedure, shortened: as §1

[8] = target: T8, PKC-gamma (Homo sapiens, UniProt P05129); conditions: read-out: Residual Activity (%)
T8 construct: purchased ProQinase
Procedure, shortened: as §1

[9] = target: T9, p38-beta (Homo sapiens, UniProt Q15759); conditions: read-out: Residual Activity (%)
T9 construct: purchased ProQinase
T9 sequence (Q15759 whole entry): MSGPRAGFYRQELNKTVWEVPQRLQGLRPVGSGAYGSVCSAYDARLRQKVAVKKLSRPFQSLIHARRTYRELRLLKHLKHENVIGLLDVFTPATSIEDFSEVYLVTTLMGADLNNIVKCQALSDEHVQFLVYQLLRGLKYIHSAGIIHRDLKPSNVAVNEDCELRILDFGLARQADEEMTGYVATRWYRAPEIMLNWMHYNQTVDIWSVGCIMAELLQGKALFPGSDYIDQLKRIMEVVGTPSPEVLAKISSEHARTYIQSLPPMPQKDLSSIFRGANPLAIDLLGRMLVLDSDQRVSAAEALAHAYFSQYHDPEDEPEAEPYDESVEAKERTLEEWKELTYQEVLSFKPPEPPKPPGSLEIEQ
Procedure, shortened: as §1

[10] = target: T10, DDR2 (Homo sapiens, UniProt Q16832); conditions: DDR2, 1 µM; read-out: Residual Activity (%)
T10 construct: purchased ProQinase
Procedure, shortened: as §1

[11] = target: T11, MAPKAPK5 (Homo sapiens, UniProt Q8IW41); conditions: MAPKAPK5, 1 µM; read-out: Residual Activity (%)
T11 construct: purchased ProQinase
Procedure, shortened: as §1

[12] = target: T12, VEGF-R1 (Homo sapiens, UniProt P17948); conditions: VEGF-R1, 1 µM; read-out: Residual Activity (%)
T12 construct: purchased ProQinase
Procedure, shortened: as §1

[13] = target: T13, SYK aa1-635 (Homo sapiens, UniProt P43405); conditions: SYK aa1-635, 1 µM; read-out: Residual Activity (%)
T13 construct: purchased ProQinase
Procedure, shortened: as §1

[14] = target: T14, STK25 (Homo sapiens, UniProt O00506); conditions: STK25, 1 µM; read-out: Residual Activity (%)
T14 construct: purchased ProQinase
Procedure, shortened: as §1

[15] = target: T15, CK2-alpha1 (Homo sapiens, UniProt P68400); conditions: CK2-alpha1, 1 µM; read-out: Residual Activity (%)
T15 construct: purchased ProQinase
Procedure, shortened: as §1

[16] = target: T16, RPS6KA5 (Homo sapiens, UniProt O75582); conditions: RPS6KA5, 1 µM; read-out: Residual Activity (%)
T16 construct: purchased ProQinase
Procedure, shortened: as §1

[17] = target: T17, EGF-R (Homo sapiens, UniProt P00533); conditions: read-out: Residual Activity (%)
T17 construct: purchased ProQinase
Procedure, shortened: as §1

[18] = target: T18, MLK4 (Homo sapiens, UniProt Q5TCX8); conditions: MLK4, 1 µM; read-out: Residual Activity (%)
T18 construct: purchased ProQinase
Procedure, shortened: as §1

[19] = target: T19, LIMK2 (Homo sapiens, UniProt P53671); conditions: LIMK2, 1 µM; read-out: Residual Activity (%)
T19 construct: purchased ProQinase
Procedure, shortened: as §1

[20] = target: T20, VRK2 (Homo sapiens, UniProt Q86Y07); conditions: VRK2, 1 µM; read-out: Residual Activity (%)
T20 construct: purchased ProQinase
Procedure, shortened: as §1

[21] = target: T21, LRRK2 (Homo sapiens, UniProt Q5S007); conditions: LRRK2, 1 µM; read-out: Residual Activity (%)
T21 construct: purchased ProQinase
Procedure, shortened: as §1

[22] = target: T22, PRK2 (Homo sapiens, UniProt Q16513); conditions: PRK2, 1 µM; read-out: Residual Activity (%)
T22 construct: purchased ProQinase
T22 sequence (Q16513 whole entry): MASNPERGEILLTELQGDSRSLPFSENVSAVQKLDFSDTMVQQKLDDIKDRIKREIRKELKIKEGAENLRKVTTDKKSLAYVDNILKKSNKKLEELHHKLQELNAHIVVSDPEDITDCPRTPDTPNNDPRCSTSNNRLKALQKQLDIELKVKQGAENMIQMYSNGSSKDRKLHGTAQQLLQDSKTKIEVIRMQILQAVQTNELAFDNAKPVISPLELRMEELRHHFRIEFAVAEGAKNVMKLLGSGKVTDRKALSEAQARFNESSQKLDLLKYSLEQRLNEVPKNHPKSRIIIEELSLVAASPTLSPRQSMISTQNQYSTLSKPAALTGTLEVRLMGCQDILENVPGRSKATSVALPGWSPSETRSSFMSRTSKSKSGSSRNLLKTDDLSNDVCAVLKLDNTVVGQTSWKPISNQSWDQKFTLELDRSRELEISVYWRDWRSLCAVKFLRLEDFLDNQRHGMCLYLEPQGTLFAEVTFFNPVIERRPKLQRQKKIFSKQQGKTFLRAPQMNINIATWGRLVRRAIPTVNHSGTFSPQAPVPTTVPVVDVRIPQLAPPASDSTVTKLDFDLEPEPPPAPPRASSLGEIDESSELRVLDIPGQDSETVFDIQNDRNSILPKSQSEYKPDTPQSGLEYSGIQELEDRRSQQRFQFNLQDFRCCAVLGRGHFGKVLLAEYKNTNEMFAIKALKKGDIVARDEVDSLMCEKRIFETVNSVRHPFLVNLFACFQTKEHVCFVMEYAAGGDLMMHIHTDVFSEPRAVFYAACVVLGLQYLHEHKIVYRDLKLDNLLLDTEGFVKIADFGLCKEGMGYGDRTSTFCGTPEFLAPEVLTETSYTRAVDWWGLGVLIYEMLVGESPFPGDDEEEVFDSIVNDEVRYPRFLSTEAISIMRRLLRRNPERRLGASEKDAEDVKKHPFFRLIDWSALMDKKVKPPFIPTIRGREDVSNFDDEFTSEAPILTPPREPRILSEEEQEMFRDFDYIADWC
Procedure, shortened: as §1

[23] = target: T23, p38-gamma (Homo sapiens, UniProt P53778); conditions: read-out: Residual Activity (%)
T23 construct: purchased ProQinase
Procedure, shortened: as §1

[24] = target: T24, CAMK2D (Homo sapiens, UniProt Q13557); conditions: read-out: Residual Activity (%)
T24 construct: purchased ProQinase
Procedure, shortened: as §1

[25] = target: T25, TTBK2 (Homo sapiens, UniProt Q6IQ55); conditions: TTBK2, 1 µM; read-out: Residual Activity (%)
T25 construct: purchased ProQinase
Procedure, shortened: as §1

[26] = target: T26, TIE2 (Homo sapiens, UniProt Q02763); conditions: TIE2, 1 µM; read-out: Residual Activity (%)
T26 construct: purchased ProQinase
Procedure, shortened: as §1

[27] = target: T27, JNK3 (Homo sapiens, UniProt P53779); conditions: JNK3, 1 µM; read-out: Residual Activity (%)
T27 construct: purchased ProQinase
T27 sequence (P53779 whole entry): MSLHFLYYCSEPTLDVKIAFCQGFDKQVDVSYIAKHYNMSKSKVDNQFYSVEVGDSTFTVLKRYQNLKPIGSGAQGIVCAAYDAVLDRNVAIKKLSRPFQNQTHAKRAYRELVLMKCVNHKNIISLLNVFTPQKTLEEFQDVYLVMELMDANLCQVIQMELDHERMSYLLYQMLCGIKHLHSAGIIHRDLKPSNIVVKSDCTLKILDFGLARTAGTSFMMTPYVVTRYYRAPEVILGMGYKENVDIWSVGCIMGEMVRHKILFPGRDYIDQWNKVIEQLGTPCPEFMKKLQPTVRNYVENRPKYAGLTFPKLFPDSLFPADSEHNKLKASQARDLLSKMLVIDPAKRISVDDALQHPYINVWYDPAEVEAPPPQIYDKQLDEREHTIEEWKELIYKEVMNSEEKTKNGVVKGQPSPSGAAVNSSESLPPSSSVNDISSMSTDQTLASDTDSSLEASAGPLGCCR
Procedure, shortened: as §1

[28] = target: T28, CDC42BPA (Homo sapiens, UniProt Q5VT25); conditions: read-out: Residual Activity (%)
T28 construct: purchased ProQinase
Procedure, shortened: as §1

[29] = target: T29, TAOK3 (Homo sapiens, UniProt Q9H2K8); conditions: TAOK3, 1 µM; read-out: Residual Activity (%)
T29 construct: purchased ProQinase
T29 sequence (Q9H2K8 whole entry): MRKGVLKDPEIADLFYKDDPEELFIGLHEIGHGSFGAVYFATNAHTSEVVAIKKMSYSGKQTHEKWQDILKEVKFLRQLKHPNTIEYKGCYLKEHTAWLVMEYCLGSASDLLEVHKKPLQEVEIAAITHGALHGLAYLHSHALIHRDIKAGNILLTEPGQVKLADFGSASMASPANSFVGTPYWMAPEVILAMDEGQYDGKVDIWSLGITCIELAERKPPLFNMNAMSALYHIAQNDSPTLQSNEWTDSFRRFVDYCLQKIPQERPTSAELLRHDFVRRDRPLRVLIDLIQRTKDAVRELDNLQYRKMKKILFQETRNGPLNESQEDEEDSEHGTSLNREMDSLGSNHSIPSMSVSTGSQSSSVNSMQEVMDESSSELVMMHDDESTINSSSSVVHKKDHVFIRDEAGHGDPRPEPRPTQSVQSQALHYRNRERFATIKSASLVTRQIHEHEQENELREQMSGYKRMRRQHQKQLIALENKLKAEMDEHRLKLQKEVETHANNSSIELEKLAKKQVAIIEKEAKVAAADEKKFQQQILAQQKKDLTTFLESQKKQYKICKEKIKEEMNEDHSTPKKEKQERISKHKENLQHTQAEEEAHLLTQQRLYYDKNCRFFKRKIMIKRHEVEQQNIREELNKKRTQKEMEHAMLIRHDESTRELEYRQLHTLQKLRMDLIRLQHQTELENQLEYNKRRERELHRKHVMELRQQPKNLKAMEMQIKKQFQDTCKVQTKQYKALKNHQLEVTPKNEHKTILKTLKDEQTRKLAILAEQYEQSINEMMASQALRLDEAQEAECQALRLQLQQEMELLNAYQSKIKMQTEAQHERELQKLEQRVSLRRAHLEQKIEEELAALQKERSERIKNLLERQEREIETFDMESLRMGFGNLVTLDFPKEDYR
Procedure, shortened: as §1

COc1ccc(-c2cc(C(=O)Nc3cc(-c4c(-c5ccc(F)cc5)noc4C(C)C)ccn3)n(CC3NCC(O)C3O)c2)cc1 (centres unmarked) [29d]
remaining activity at 1 µM [1]: 97%
remaining activity at 1 µM [2]: 105%
remaining activity at 1 µM [3]: 97%
remaining activity at 1 µM [4]: 90%
remaining activity at 1 µM [5]: 104%
remaining activity at 1 µM [6]: 98%
remaining activity at 1 µM [7]: 156%
remaining activity at 1 µM [8]: 112%
remaining activity at 1 µM [9]: 74%
remaining activity at 1 µM [10]: 95%
remaining activity at 1 µM [11]: 110%
remaining activity at 1 µM [12]: 119%
remaining activity at 1 µM [13]: 148%
remaining activity at 1 µM [14]: 98%
remaining activity at 1 µM [15]: 103%
remaining activity at 1 µM [16]: 101%
remaining activity at 1 µM [17]: 108%
remaining activity at 1 µM [18]: 112%
remaining activity at 1 µM [19]: 98%
remaining activity at 1 µM [20]: 92%
remaining activity at 1 µM [21]: 100%
remaining activity at 1 µM [22]: 88%
remaining activity at 1 µM [23]: 99%
remaining activity at 1 µM [24]: 100%
remaining activity at 1 µM [25]: 101%
remaining activity at 1 µM [26]: 110%
remaining activity at 1 µM [27]: 15%
remaining activity at 1 µM [28]: 100%
remaining activity at 1 µM [29]: 96%

Source: paper PMC6429214, “Design, Synthesis and Biological Evaluation of Isoxazole-Based CK1 Inhibitors Modified with Chiral Pyrrolidine Scaffolds” (Molecules, 2019)
